Data from paper PMC3026800, “Mechanism of Inhibition of Enveloped Virus Membrane Fusion by the Antiviral Drug Arbidol” (PLoS ONE, 2011).
Where “and” joins values, the source holds several entries; their conditions need not be identical. Equal entries are not always repeated. Where two headings read alike, the source gives them in different places.

Key:
[1] = target: T1, HCV NS4A[1–22]* transmembrane peptide (Hepatitis C virus genotype 1a, UniProt P27958); assay: Trp fluorescence quenching of peptide in PC:chol liposomes; type: binding; conditions: peptide in PC∶chol liposomes (1∶20)
T1 construct: HCV NS4A[1–22]* transmembrane peptide […]
Experimental: (§1) Measurements were recorded on a Tecan Infinite® M1000 spectrofluorimeter.

[2] = Surface plasmon resonance binding to immobilized DMPC liposomes (L1 chip)
Experimental: The running buffer was milliQ water. The influence of liposome concentrations on the final SPR signal was tested; we assayed lipid concentrations from 0.5 to 5 mM and measured the resulting resonance units (RU). […] We therefore chose the 2 mM concentration for our experiments. DMPC liposomes were resuspended in milliQ water and captured on sensor chip at 2 µl/min for 5 min. The flow rate was increased to 30 µl/min and the liposome surface was then washed with 10 mM NaOH for 1 min. Liposomes immobilized on the chip surface gave approx. a 5000 RU signal. […] After each binding cycle, the sensor surface was regenerated to the original matrix by injecting 50 mM NaOH/isopropanol (6∶4, v∶v). The sensor surface was then coated with a fresh liposome suspension for the next binding cycle. KD values were calculated from the equilibrium resonance signal (Req) as a function of the analyte concentration. Req values were estimated by extrapolation to infinite time using plots of resonance signal as a function of the reciprocal of time. Apparent KD were then calculated by nonlinear fitting to the expression Req = RmaxC/(KD+C), where Rmax is the maximum binding capacity of the surface and C is the analyte concentration, using the SigmaPlot software.

[3] = Free Arb in Arb∶DMPC mixture by ultrafiltration; type: physicochemical; conditions: Arb∶DMPC molar ratio 1∶4, neutral pH, ultrafiltration cutoff 5000 Da
[4] = target: Trp residues of model membrane-binding peptides (HCV NS4A and BVDV NS5A); assay: Trp fluorescence quenching, model membrane peptides taken together; conditions: HCV NS4A and BVDV NS5A peptides in PC∶chol liposomes, both pH, summary; read-out: Apparent KD toward peptide Trp
Experimental: as §1

HCVpp [5] = assay: Membrane fusion assay: lipid mixing between pseudoparticles and R18-labeled liposomes; conditions: pH 5.0
Experimental: Lipid mixing between pseudoparticles and PC∶chol∶R18 liposomes was monitored by fluorescent spectroscopy, as the dequenching of R18 [18]. In brief, R18-labeled liposomes (1 µl, 12.5 µM final lipid concentration) were added to a 37°C-thermostated cuvette containing pseudoparticles in PBS pH 7.4 [viral titers: H77 (1a) 5.10e^5; W529A-HC 10e^2; Con1 (1b) 4.10e^4; JFH1 (2a) 5.10e^4; AY734983 (2b) 8.10e^4; AY734984 (3a) 3.10e^4; AY734987 (4a) 9.10e^4; AY785283 (5a) 3.10e^4; AY736194 (6a) 5.10e^3; HA 8.10e^8; Rd114 2.10e^6], and incubated 2 min. Fusion was initiated by acidification to pH 5 with HCl, and recorded on an SLM Aminco 8000 spectrofluorimeter over a 10-min time period, at excitation and emission wavelengths of 560 nm and 590 nm, respectively. Maximal R18 dequenching was measured after the addition of 0.1% Triton X-100 (final concentration) to the cuvette to lyse liposomes.

E2[606–625] peptide = E2[606–625] peptide (Hepatitis C virus genotype 1a, UniProt P27958); assay: Trp fluorescence quenching of fusion-related peptide in PC:chol liposomes; type: binding, HCV strain H (genotype 1a); conditions: peptide in PC∶chol liposomes (1∶20)
Experimental: as §1

E2[415–432] peptide = E2[415–432] peptide (Hepatitis C virus genotype 1a, UniProt P27958); assay: as above; type: binding, HCV strain H (genotype 1a); conditions: peptide in PC∶chol liposomes (1∶20)
Experimental: as §1

[6] = Indole fluorescence quenching of tryptophan derivative in solution; type: binding; conditions: NATA in solution
Experimental: as §1

HCVpp [7] = assay: microbe, parasite or virus in culture; type: cell-based, hepatitis C virus; conditions: for inhibition at 11.3 µM: Hepatitis C virus, Huh-7, 6 h, read-out: Inhibition of HCVpp cell entry; for Effect on HCVpp cell entry: 11.3 µM Arb, 6 h, Huh-7 cells
[8] = cited from earlier work
Solubility of Arb = type: physicochemical
[9] = Indole fluorescence quenching of tryptophan derivative in micelles or liposomes; type: binding
Experimental: as §1

[10] = system: Rd114pp (envelope glycoprotein of the RD114 feline oncovirus); type: cell-based; conditions: 11.3 µM arbidol; control pseudoparticles

**Q.** Which results are given for `CCOC(=O)c1c(CSc2ccccc2)n(C)c2cc(Br)c(O)c(CN(C)C)c12.Cl` [Arb, 1H-indole-3-carboxylic acid, 6-bromo-4-[(dimethylamino)-methyl]-5-hydroxy-1-methyl-2-[(phenylthio)methyl]-, ethyl ester, monohydrochloride]?
**A.** Kd ([1]; pH 5.0): 5.6 ± 0.3 µM; Kd ([1]; pH 7.4): 3.3 ± 0.6 µM; Arb remaining bound to DMPC after dissociation ([2]; all Arb concentrations tested (0.5 to 11.3 µM)): about 50%; Kd ([2]; read-out: Apparent KD for DMPC, SPR, 30°C, water, Req extrapolated to infinite time, 4 separate experiments): 6.8 ± 0.4 µM; Free Arb [3]: < 0.2%; Kd [4]: ~4 µM; Inhibition of membrane fusion activity (HCVpp [5]; all tested genotypes, 11.3 µM Arb): about 50%; IC50 (HCVpp [5]; read-out: IC50 of HCVpp fusion, lipid mixing with R18 liposomes): 11.3 µM and ~10 µM; Kd (E2[606–625] peptide; pH 5.0): 70 ± 10 µM; Kd (E2[606–625] peptide; pH 7.4): 13 ± 3 µM; Kd (E2[415–432] peptide; pH 5.0): 28 ± 7 µM; Kd (E2[415–432] peptide; pH 7.4): ~15 µM and 15 µM; Kd ([6]; pH 5.0): 55 ± 10 µM; Kd ([6]; pH 7.4): 64 ± 10 µM; inhibition at 11.3 µM (HCVpp [7]; genotype 1a): 40%; inhibition at 11.3 µM (HCVpp [7]; genotype 1b): 40%; inhibition at 11.3 µM (HCVpp [7]; genotype 2a): ~60%; inhibition at 11.3 µM (HCVpp [7]; genotype 2b): 40%; inhibition at 11.3 µM (HCVpp [7]; genotype 3a): ~60%; Effect on HCVpp cell entry (HCVpp [7]; genotype 5a): weakly affected; Effect on HCVpp cell entry (HCVpp [7]; genotype 6a): weakly affected; Toxicity [8]: low toxicity; Solubility (Solubility of Arb; ethanol): readily soluble; Solubility (Solubility of Arb; water): soluble in the mM range; Kd ([9]; TOE associated to liposomes (1∶20), summary, read-out: KD (apparent affinity)): ~10 µM; Kd ([9]; TOE in PC liposomes (1∶20), pH 5.0, read-out: KD): 9.2 ± 0.2 µM; Kd ([9]; TOE in PC liposomes (1∶20), pH 7.4, read-out: KD): 6 ± 0.5 µM; Kd ([9]; TOE in PC∶chol liposomes (1∶20), pH 5.0, read-out: KD): 15.6 ± 1.3 µM; Kd ([9]; TOE in PC∶chol liposomes (1∶20), pH 7.4, read-out: KD): 11.7 ± 1.4 µM; Kd ([9]; TOE in lyso-PC micelles (1∶800), pH 5.0, read-out: KD): 48 ± 4 µM; Kd ([9]; TOE in lyso-PC micelles (1∶800), pH 7.4, read-out: KD): 58 ± 9 µM; Sensitivity of pseudoparticle entry to arbidol [10]: insensitive
